A short description of assay [1]: Displacement of [3H]AMPA from AMPA receptor in Sprague-Dawley rat brain membranes. It is filed as cell membranes, Membrane. (Loss of bound radioactivity is the signal in a displacement assay; it reports binding, not function.)
The target of assay [2] is Glutamate NMDA receptor. The assay can be described thus: Displacement of [3H]CGP39653 from NMDA receptor in Sprague-Dawley rat brain membranes. Type of assay: cell membranes, Membrane.
Assay [3] has as its target T1, Glutamate NMDA receptor; Grin1/Grin2a (Rattus norvegicus) (UniProt P35439+Q00959). Briefly: Agonist activity at rat NR1/NR2A receptor expressed in BHK21 cells assessed as change in intracellular calcium levels by FLIPR assay relative to (S)-Glu. The conditions noted are these: BHK-21. Type of assay: functional, cell-based. (In general: Calcium assays in cells follow changes in intracellular calcium, usually with a dye or a luminescent sensor.)

Assay [4] addresses Glutamate receptor 2 (Rattus norvegicus, UniProt P19491). The assay can be described thus: Displacement of [3H]AMPA from rat iGluR2 receptor expressed in Sf9 cells baculovirus system after 1 to 2 hrs by liquid scintillation counting.
In assay [5] the target is Glutamate receptor ionotropic, kainate 2 (Rattus norvegicus, UniProt P42260). The assay can be described thus: Displacement of [3H]SYM2081 from rat iGluR6 receptor expressed in Sf9 cells baculovirus system after 1 to 2 hrs by liquid scintillation counting.
Sequence of Glutamate receptor ionotropic, kainate 2 (P42260 whole entry): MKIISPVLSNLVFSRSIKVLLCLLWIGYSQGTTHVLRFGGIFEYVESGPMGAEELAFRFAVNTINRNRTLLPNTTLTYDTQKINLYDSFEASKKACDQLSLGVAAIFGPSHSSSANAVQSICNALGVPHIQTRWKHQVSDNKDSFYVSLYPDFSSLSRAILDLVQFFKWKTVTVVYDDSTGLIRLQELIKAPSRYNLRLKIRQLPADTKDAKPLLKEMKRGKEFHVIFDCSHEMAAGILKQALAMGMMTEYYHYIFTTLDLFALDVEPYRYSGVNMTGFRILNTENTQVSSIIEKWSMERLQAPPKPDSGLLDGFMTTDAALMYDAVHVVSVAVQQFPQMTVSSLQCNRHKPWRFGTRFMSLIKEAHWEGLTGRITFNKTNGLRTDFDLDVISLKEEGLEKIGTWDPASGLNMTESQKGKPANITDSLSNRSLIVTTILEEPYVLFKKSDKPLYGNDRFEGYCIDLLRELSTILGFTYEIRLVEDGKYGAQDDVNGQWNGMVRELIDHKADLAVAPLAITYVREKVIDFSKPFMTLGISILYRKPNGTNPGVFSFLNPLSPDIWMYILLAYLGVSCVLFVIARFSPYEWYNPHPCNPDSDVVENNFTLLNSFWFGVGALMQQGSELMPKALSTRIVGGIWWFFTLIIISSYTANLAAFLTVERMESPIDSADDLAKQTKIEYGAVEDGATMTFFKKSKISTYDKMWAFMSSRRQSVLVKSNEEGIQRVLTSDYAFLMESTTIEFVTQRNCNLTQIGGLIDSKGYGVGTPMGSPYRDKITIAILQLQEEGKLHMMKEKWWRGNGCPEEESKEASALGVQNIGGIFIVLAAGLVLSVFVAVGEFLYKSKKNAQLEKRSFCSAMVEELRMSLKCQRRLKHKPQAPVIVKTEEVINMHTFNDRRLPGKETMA
For assay [6], the target named is Glutamate receptor ionotropic, kainate 3 (Rattus norvegicus, UniProt P42264). The assay can be described thus: Displacement of [3H]SYM2081 from rat iGluR7 receptor expressed in Sf9 cells baculovirus system after 1 to 2 hrs by liquid scintillation counting.
Sequence of Glutamate receptor ionotropic, kainate 3 (P42264 whole entry): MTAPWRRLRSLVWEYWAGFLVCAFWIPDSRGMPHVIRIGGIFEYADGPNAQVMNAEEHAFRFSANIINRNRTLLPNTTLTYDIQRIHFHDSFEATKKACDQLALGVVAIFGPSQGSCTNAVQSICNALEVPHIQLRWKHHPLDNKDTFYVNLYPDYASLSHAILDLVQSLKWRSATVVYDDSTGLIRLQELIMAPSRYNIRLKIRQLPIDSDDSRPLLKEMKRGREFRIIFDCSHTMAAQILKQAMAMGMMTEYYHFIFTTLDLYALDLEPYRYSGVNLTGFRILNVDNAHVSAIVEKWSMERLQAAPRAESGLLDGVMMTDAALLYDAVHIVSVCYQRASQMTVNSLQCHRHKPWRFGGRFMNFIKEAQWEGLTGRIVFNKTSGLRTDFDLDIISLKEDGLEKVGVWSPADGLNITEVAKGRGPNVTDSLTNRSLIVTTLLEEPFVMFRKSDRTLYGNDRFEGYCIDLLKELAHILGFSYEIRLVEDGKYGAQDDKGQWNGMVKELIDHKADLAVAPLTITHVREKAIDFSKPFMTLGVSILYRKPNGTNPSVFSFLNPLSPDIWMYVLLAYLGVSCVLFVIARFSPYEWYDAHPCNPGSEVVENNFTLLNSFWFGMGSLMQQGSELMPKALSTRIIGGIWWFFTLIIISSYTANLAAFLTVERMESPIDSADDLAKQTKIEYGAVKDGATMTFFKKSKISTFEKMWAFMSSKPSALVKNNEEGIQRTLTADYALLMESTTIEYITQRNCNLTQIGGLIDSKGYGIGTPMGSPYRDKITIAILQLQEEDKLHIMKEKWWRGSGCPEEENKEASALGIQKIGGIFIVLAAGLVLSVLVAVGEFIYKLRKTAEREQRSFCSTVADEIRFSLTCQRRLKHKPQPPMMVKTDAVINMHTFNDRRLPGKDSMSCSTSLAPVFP
Assay [7] has as its target Glutamate receptor 2 (Homo sapiens, UniProt P42262). Briefly: Activity at recombinant iGluR2 receptor expressed in Xenopus laevis oocytes using holding potential of -15 to -20 mV by TEVC electrophysiology. Type of assay: cell-based, Oocyte.
The target in assay [8] is T2, Glutamate NMDA receptor; Grin1/Grin2a (Rattus norvegicus, UniProt P35439+Q00959). Briefly: Agonist activity at rat NR1/NR2A receptor expressed in BHK21 cells assessed as change in intracellular calcium levels at 1000 uM by FLIPR assay. It is filed as functional, cell-based. As to conditions: bhk-21.
Assay [9] addresses T2, Glutamate NMDA receptor; Grin1/Grin2a. Briefly: Antagonist activity at rat NR1/NR2A receptor expressed in BHK21 cells assessed as inhibition of (S)-Glu-induced intracellular calcium levels by FLIPR assay. It is filed as functional, cell-based, BHK-21.
Assay [10] concerns the target Glutamate receptor ionotropic, kainate 1 (Rattus norvegicus, UniProt P22756). Briefly: biochemical.
Description: Displacement of [3H]SYM2081 from rat iGluR5 receptor expressed in Sf9 cells baculovirus system after 1 to 2 hrs by liquid scintillation counting
The target in assay [11] is T2, Glutamate NMDA receptor; Grin1/Grin2a. The assay can be described thus: Agonist activity at rat NR1/NR2A receptor expressed in BHK21 cells assessed as change in intracellular calcium levels by FLIPR assay. It is filed as functional, cell-based, BHK-21.
In assay [12] the target is T1, Glutamate NMDA receptor; Grin1/Grin2a (Rattus norvegicus). The assay can be described thus: Agonist activity at rat NR1/NR2A receptor expressed in BHK21 cells assessed as increase in intracellular calcium levels by FLIPR assay. As to conditions: BHK-21.
Assay [13] has as its target Glutamate NMDA receptor. The assay can be described thus: Displacement of [3H]CPP from NMDA receptor in Sprague-Dawley rat brain membranes. It is filed as cell membranes, Membrane.

The source made the active and inactive calls. The calls are words filed in the database; no cut-off is given here. Where only a bound is given, the exact number is not on record here.

Sequence of Glutamate receptor ionotropic, kainate 1 (P22756 whole entry): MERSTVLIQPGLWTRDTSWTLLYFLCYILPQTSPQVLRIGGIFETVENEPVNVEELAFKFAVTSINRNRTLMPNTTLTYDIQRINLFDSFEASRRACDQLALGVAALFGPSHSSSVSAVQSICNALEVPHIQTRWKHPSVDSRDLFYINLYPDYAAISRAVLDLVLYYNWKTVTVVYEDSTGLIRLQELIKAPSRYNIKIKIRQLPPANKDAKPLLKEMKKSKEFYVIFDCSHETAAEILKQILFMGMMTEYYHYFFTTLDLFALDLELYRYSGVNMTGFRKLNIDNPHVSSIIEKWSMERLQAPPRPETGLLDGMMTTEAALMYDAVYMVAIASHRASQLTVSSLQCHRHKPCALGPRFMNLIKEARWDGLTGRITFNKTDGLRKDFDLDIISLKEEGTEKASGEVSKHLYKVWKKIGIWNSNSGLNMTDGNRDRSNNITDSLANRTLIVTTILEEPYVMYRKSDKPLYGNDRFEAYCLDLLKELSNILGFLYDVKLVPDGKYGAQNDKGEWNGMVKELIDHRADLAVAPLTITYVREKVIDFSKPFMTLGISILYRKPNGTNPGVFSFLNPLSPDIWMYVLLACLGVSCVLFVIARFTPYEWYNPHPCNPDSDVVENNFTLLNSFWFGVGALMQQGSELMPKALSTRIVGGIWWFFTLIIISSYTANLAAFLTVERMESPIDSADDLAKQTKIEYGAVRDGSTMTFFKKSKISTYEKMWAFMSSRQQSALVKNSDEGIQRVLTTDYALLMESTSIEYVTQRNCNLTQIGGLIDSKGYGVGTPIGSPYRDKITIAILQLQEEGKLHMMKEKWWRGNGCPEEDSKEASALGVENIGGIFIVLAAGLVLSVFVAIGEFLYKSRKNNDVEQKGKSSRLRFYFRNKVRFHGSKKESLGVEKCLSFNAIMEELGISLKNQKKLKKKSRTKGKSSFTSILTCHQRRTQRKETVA
Sequence of Glutamate receptor 2 (Homo sapiens, UniProt P42262) (P42262 whole entry): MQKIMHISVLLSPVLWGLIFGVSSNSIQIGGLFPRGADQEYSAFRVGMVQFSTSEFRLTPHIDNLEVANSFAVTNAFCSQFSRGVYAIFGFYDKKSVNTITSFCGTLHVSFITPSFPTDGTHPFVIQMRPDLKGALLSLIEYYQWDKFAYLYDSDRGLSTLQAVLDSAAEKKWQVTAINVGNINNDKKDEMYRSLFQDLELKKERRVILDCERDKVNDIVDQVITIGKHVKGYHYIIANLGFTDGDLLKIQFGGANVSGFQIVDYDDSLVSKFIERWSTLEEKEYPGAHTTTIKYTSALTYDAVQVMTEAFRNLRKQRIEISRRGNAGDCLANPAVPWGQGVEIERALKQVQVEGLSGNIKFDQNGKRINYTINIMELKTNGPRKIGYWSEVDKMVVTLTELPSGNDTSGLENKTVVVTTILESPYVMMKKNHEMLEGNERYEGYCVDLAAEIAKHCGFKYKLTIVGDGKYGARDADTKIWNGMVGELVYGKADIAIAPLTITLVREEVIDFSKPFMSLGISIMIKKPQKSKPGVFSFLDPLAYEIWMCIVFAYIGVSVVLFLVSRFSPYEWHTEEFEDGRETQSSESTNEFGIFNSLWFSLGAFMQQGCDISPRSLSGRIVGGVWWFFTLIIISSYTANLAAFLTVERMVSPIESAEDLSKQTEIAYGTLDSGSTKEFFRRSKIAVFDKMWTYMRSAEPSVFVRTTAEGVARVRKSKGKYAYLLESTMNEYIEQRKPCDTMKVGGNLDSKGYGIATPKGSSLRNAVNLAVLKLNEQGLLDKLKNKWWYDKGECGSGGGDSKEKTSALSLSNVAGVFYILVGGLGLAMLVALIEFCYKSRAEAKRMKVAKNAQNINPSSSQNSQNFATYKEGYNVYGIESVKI
Sequence of Glutamate receptor 2 (Rattus norvegicus, UniProt P19491) (P19491 whole entry): as the sequence (P42262 whole entry) above, with M191T, T291A, R764G, A852P counted along it

As a reminder, the IC50 is the concentration needed to halve the response being measured. The term Ki denotes the equilibrium dissociation constant of an inhibitor or competing ligand from its target. High values mean a looser hold on the target, low ones a stronger hold on the target. In assay [1], `NC(C(=O)O)c1nonc1O` (racemic) returned a half-maximal inhibitory concentration (IC50) above 100 µM. This compound came in with a Ki in assay [2] of 6.3 µM.

With `CN[C@H](CC(=O)O)C(=O)O` [N-METHYL-D-ASPARTIC ACID (NMDA)], the IC50 in assay [1] was above 100 µM. For the same compound, the affinity in assay [2], expressed as Ki, was 6.2 µM.

As a reminder, the pIC50 is the negative decadic logarithm of the IC50, by convention in mol/L. Low readings indicate a high IC50, high ones a low IC50. In [1], `NC(Cc1nonc1O)C(=O)O` (racemic) [2-AMINO-3-(4-HYDROXY-1,2,5-OXADIAZOL-3-YL)PROPIONIC ACID (STRUCTURAL MIX)] gave an IC50 of 0.17 µM and a negative-log IC50 (pIC50) of 6.76. The compound further had a Ki in [2] of 16 µM.

In [1], `NC(CCCc1nonc1O)C(=O)O` (racemic) [2-AMINO-5-(4-HYDROXY-1,2,5-OXADIAZOL-3-YL)PENTANOIC ACID (STRUCTURAL MIX)] came in with an IC50 of 61 µM and a pIC50 of 4.22. In assay [2], this compound displayed a Ki of 2.9 µM.

In the case of `NC(Cc1nonc1O)C(=O)O` (single isomer, unassigned; (+)), the Imax in assay [3] stood at 0.76.

In assay [1], `Cc1onc(O)c1CC(N)C(=O)O` (racemic) [(R,S)-AMPA] yielded a 50% inhibitory concentration (IC50) of 0.039 µM.

As usually defined, the EC50 is the concentration that produces a half-maximal response. On to `NC(CCc1nonc1O)C(=O)O` (stereo in doubt; (+)-15) [2-AMINO-4-(4-HYDROXY-1,2,5-OXADIAZOL-3-YL)BUTANOIC ACID (STRUCTURAL MIX)], for which the IC50 in [1] was found to be 42 µM; in assay [9] it was 1020 µM. In assay [1], this compound gave a pIC50 of 4.37. The inhibition constant Ki is 73 µM in [2]; 40 µM in [4]; above 1000 µM in assay [5]; 41 µM in [6]; 53 µM in assay [10]. Further, the values for the half-maximal effective concentration (EC50) in [7] and in assay [8] were 489 µM and “Not Active”, respectively.

In assay [1], `NC(Cc1nonc1O)C(=O)O` (single isomer, unassigned; (+)) [2-AMINO-3-(4-HYDROXY-1,2,5-OXADIAZOL-3-YL)PROPIONIC ACID (STRUCTURAL MIX)] gave an IC50 of 0.11 µM. For the same compound, the pIC50 in [1] is 6.95. Besides, the Ki in assay [2] was 13 µM; in assay [4], 0.043 µM; in assay [5] it was above 100 µM; in assay [6] it was above 100 µM; in [10], 8.1 µM. In addition, the figures for the EC50 in assay [7] and in assay [11] were 9.4 µM and 47 µM, respectively.

Regarding `NC(CCc1nonc1O)C(=O)O` (racemic), the outcome in [12] was inactive.

For `NC(CCCc1nonc1O)C(=O)O` (racemic), the result in [12] was inactive.

Consider `NC(Cc1nsnc1O)C(=O)O` (racemic), for which the half-inhibitory concentration (IC50) in assay [1] was determined as 0.12 µM. In assay [13], this compound came in with an inhibitory constant (Ki) above 100 µM.

For the compound `NC(CCc1nonc1O)C(=O)O` (racemic) [2-AMINO-4-(4-HYDROXY-1,2,5-OXADIAZOL-3-YL)BUTANOIC ACID (STRUCTURAL MIX)], in assay [1], the 50% inhibitory concentration (IC50) was determined as 77 µM and the pIC50 came out at 4.12. In assay [2], this compound returned a Ki of 4.9 µM.

On to `NC(CCCc1nonc1O)C(=O)O` (stereo in doubt; (+)-18) [2-AMINO-5-(4-HYDROXY-1,2,5-OXADIAZOL-3-YL)PENTANOIC ACID (STRUCTURAL MIX)], for which the half-maximal inhibitory concentration (IC50) came to 42 µM in assay [1] and 245 µM in assay [9]. Moreover, the negative-log IC50 (pIC50) in [1] turned out to be 4.37. The Ki was 22 µM in [2]; 20 µM in assay [4]; above 1000 µM in assay [5]; above 1000 µM in [6]; 67 µM in assay [10]. Also, the concentration giving a half-maximal response (EC50) in [7] was 491 µM; in assay [8], “Not Active”.

In turn, `NC(Cc1nonc1O)C(=O)O` (stereo in doubt; (-)-10) [2-AMINO-3-(4-HYDROXY-1,2,5-OXADIAZOL-3-YL)PROPIONIC ACID (STRUCTURAL MIX)] returned an IC50 in assay [1] of 0.76 µM. Besides, the Ki in assay [2] was above 100 µM; in [4], 0.25 µM; in assay [5] (sf9), above 100 µM; in assay [6] (sf9) it was above 100 µM; in assay [10], 77 µM. Besides, the results for the 50% effective concentration (EC50) in assay [7] and in assay [11] were 43 µM and above 500 µM, respectively.

As to `NC(CCc1nonc1O)C(=O)O` (single isomer, unassigned; (-)) [2-AMINO-4-(4-HYDROXY-1,2,5-OXADIAZOL-3-YL)BUTANOIC ACID (STRUCTURAL MIX)], the IC50 in assay [1] was above 100 µM; in [9] it was 49 µM. In [2], this compound gave a Ki of 3.4 µM.

In the case of `C=C(C)[C@H]1CN[C@H](C(=O)O)[C@H]1CC(=O)O` [KAINIC ACID], the IC50 in assay [1] turned out to be 4 µM. Further, the Ki in assay [2] was above 100 µM.

`NC(CCCc1nonc1O)C(=O)O` (stereo in doubt; (-)-18) [2-AMINO-5-(4-HYDROXY-1,2,5-OXADIAZOL-3-YL)PENTANOIC ACID (STRUCTURAL MIX)]: the half-maximal inhibitory concentration (IC50) was above 100 µM in assay [1] and 28 µM in assay [9]. In assay [2], this compound had a Ki of 1.8 µM.

For the origin of these results see ChEMBL document CHEMBL1157748, “4-hydroxy-1,2,5-oxadiazol-3-yl moiety as bioisoster of the carboxy function. Synthesis, ionization constants, and molecular pharmacological characterization at ionotropic glutamate receptors of compounds related to glutamate and its homologues” (J Med Chem, 2010).
